Reference: patent US20020165233A1, “Quinoxaline containing medicaments for post exposure prophylaxis of an HIV infection” (priority 1999, published 2002)

Experiments:
RT-SHIV [1] = assay: Inhibitory activity on RT-SHIV replication in Herpes Saimiri Virus transformed monkey CD4+ T cells (P27 SIV gag antigen); assay type: cell-based, chimeric simian-human immunodeficiency virus (SHIV)
Experimental: The virus used in the experiments is a chimeric simian-human immunodeficiency virus (SHIV) that consists of SIVmac239 virus genome with replacement of reverse transcriptase gene (RT) by the corresponding HIV-1 RT gene (Ueberla, K. et al (1995), Medical Sciences 92, […]). RT-SHIV induced AIDS in experimentally infected rhesus monkeys (Ueberla, loc.cit.). Proviral RT-SHIV DNA was prepared by ligation of RT-SHIV5′ and 3′ half of SIVmac239. COS-1 virus stocks were prepared by DNA transfection of proviral DNA. Virus stocks for efficacy experiments were prepared by propagation of COS-1 virus stock in rhesus monkey peripheral blood lymphocytes (PBL). P27 antigen concentration of the virus stocks was determined with a commercial SIV gag antigen ELISA kit (Coulter). The 50% T cell infective dose (TCID50) of the stocks was determined with Herpes Simiri Virus transformed cynomolgus CD4^+ T cells (cyT/HSV).
Inhibitory Activity of COMPOUND A on RT-SHIV Replication in Herpes Saimiri Virus Transformed Monkey CD4^+ T Cells:
3×10^6 of CyT/HSV cells were infected with RT-SHIV stocks containing 10000 TCID50 for 2 h at 37° C., then washed and resuspended in the medium containing serially diluted COMPOUND A (0, 0.1, 0.3, 1, 3, 10, 30, 100, 300, 1000 nM). […] Virus growth was monitored by measuring of P27 SIV gag antigen in culture supernatant with a commercial kit.

[2] = parameters: species or system rhesus monkeys; settings: rhesus monkey, in vivo, sc, 15 mg/kg
Experimental: (§1) Nine rhesus monkeys (male, 2 years old, 2-3 kg) were seronegative for SIV, Simian T cell Leukemia Virus (STLV), B virus and Type D retroviruses. 15 mg/kg body weight of COMPOUND A was subcutaneously administered into animals twice a day (12 h interval) for 28 d. Animals were divided into three groups. All animals were intravenously administered with 100 TCID50 of RT-SHIV The first group consisted of three animals treated with COMPOUND A from 8 h post exposure for 28 d. The second group of animals was treated with COMPOUND A from 24 h post exposure for 28 d. The third group (control) received the solvent that was used to dissolve COMPOUND A (PEG400:glycerol:water=[…]) from 8 h post exposure for 28 d.
(§2) Blood was collected from all the animals either just before or 2 h after the drug administration on 0, 3, 7, 10, 14, 21, 29 d post exposure in order to check the drug concentration, otherwise in intervals of 2 to 8 weeks. Biopsy of inguinal lymph nodes was conducted on 17 d or 18 d and 8 weeks post exposure in two animals per group. Cerebrospinal fluid (CSF) was collected from the animals just before biopsy.
Determination of COMPOUND A Concentration in Plasma and CSF:
Blood was collected from all animals just before or 2 h after drug administration to check trough (lowest) or highest blood concentration of the drug. COMPOUND A concentration in CSF was determined by HPLC.

RT-SHIV [3] = assay: Plasma viral load (quantitative RNA PCR) after post-exposure prophylaxis; assay type: in vivo, rhesus monkeys
Experimental: as §1, §2
Determination of Plasma Viral Load:
Viral RNA was purified from plasma with a commercial viral RNA isolation kit (Boehringer Mannheim). Gag cDNA was PCR amplified with a commercial RNA PCR kit (Boehringer Mannheim) with the gag primers SG05i (5′-ACTGCTGATTCAAAATGCiMCC-3′), SG06i (5′-CTACTGGTCTiCTCCAAAGAGAGAATTG-3′) according to the protocol by Piatak et al. (Biotechniques 14, 70-81-1993) with modifications. Amplified gag DNA was separated by 2% agarose electrophoresis and cyber green stained DNA was analyzed with a fluorescence image analyzer (FLA2000, Fuji Photo Film). Quantitative determination of the viral RNA copy number was calculated using external standards.

RT-SHIV [4] = assay: Anti-SIV ELISA (humoral response); assay type: in vivo, rhesus monkeys
Experimental: as §1
1:100 fold diluted plasma was assayed with ELISA plates coated with SIVmac239 virion lysate. Antibody titer was monitored by measuring the absorbance at 492 nm.

RT-SHIV [5] = assay: Cytotoxic lymphocytes (CTL) assay against env and gag-pol; assay type: in vivo, rhesus monkeys; settings: treated animals; all time points tested (3 w to 40 w post exposure)

Question: Which “suppression of RT-SHIV replication” value (RT-SHIV [1]; 10 nM COMPOUND A, Herpes Saimiri Virus transformed monkey CD4+ cells) does the source give for `CC[C@H]1C(=O)Nc2ccc(F)cc2N1C(=O)OC(C)C` [Compound A, (3S)-ethyl-6-fluoro-4-isopropyloxycarbonyl-3,4-dihydroquinoxalin-2(1H)-one] here?
Answer: Its value is “more than 95%”.

Question: And the IC90 (RT-SHIV [1]; Simian-Human immunodeficiency virus, CD4+ T, in Primates, read-out: IC90 value (RT-SHIV replication))?
Answer: The IC90 was 8 nM.

Question: And the “concentration in cerebral spinal fluid (CSF) relative to blood” value [2]?
Answer: Its value is “approximately one tenth”.

Question: What about the “minimum level of the drug” value [2] of the same compound?
Answer: The value was “higher than the effective minimal concentration”.

Question: What about the “trough concentration relative to the IC90 value” [2] of the same compound?
Answer: Its value is 3 fold.

Question: And the “animals with a short active viral replication” value (RT-SHIV [3]; 4 weeks after cessation of treatment)?
Answer: Its value is 50 % of the animals.

Question: What about the “viral replication (plasma viral RNA, proviral DNA, infectious cells in PBMC)” value (RT-SHIV [3]; during the treatment and the following 3 weeks, all treated animals) of the same compound?
Answer: The value was “inhibited at a level below the sensitivity of the assays”.

Question: And the “viral infection in animal #5” value (RT-SHIV [3]; plasma viral RNA, proviral DNA and QVI methods)?
Answer: Its value is “no viral infection was observed”.

Question: And the “duration of immune-system assisted control following exposure” value (RT-SHIV [3]; rhesus macaques)?
Answer: Its value is “at least 40 weeks”.

Question: And the “viral replication (plasma viral RNA level)” value (RT-SHIV [3]; subsequent to active replication around 10 weeks, up to 40 weeks post exposure, RNA PCR detection level)?
Answer: Its value is no more than 1000 copy/ml.

Question: What about the “induction of humoral response against RT-SHIV” value (RT-SHIV [4]; ELISA against SIV virion proteins, untreated sero-positive at 4 weeks) of the same compound?
Answer: The value was “delayed induction of humoral response”.

Question: What about the treated animals sero-positive (RT-SHIV [4]; at 11 weeks post exp.) of the same compound?
Answer: The treated animals sero-positive was “Two of six”.

Question: What about the “humoral response of animal #5” value (RT-SHIV [4]; late course) of the same compound?
Answer: The value was “eventually lost its humoral response”.

Question: And the “CTL activity against env and gag-pol” value (RT-SHIV [5])?
Answer: Its value is “constant high CTL activity”.
